SMILES strings stand for the structures.

In the assay the target is human F508del-CFTR (Homo sapiens, UniProt P13569, DEL508-508). The experiment in a line: F508del-CFTR cell surface expression (corrector activity), DiscoveRx ß-galactosidase complementation chemiluminescence assay in recombinant U2OS cell line.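 As to all read-outs here: U2OS cells co-expressing ProLink-tagged F508del-CFTR and a membrane-anchored enzyme acceptor, where more surface CFTR restores β-galactosidase activity measured by chemiluminescence.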 To be noted: U2OS cell line, 16h compound incubation; for EC50: EC50, F508del-CFTR cell surface expression, geomean values; for Emax: U2OS, in relation to the Emax of the corrector lumacaftor (=100%), arithmetic mean values.
human F508del-CFTR, sequence (P13569 with tags, fused parts or gaps DEL508-508): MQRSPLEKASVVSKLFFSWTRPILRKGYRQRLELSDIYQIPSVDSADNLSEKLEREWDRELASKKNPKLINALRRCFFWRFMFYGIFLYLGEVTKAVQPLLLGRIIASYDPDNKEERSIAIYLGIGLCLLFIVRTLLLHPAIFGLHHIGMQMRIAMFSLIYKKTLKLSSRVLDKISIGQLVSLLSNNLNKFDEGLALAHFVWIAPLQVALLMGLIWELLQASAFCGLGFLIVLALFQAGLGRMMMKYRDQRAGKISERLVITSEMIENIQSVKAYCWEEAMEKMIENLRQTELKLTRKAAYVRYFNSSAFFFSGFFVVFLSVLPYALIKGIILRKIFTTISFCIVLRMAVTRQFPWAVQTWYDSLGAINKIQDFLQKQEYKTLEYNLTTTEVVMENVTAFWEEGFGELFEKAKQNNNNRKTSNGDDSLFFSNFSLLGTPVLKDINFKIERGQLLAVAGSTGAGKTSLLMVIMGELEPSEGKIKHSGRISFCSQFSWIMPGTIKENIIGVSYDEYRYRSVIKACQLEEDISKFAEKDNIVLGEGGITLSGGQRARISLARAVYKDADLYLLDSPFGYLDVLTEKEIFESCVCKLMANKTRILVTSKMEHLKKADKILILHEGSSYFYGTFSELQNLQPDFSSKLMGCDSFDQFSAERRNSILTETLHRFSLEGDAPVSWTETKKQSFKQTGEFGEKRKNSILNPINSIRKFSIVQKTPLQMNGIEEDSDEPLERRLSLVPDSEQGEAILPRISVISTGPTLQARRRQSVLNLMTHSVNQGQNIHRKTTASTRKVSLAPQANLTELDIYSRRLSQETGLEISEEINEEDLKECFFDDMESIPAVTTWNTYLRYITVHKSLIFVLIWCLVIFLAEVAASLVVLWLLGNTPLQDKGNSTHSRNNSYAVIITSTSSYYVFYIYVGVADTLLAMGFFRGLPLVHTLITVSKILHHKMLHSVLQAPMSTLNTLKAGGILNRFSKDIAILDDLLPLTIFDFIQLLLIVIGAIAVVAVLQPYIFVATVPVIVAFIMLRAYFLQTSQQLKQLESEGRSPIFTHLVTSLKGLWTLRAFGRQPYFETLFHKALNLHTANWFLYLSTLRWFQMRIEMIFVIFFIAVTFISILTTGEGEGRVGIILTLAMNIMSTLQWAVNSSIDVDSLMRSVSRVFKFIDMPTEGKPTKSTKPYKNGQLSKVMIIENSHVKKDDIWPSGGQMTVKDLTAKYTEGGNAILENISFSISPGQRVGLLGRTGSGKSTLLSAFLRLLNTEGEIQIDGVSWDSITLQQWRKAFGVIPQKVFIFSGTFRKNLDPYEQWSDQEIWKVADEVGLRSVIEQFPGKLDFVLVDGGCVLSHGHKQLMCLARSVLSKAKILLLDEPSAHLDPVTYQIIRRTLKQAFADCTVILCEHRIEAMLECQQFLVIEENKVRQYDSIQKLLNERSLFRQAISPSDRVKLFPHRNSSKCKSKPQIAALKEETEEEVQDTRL

`CCOc1cccc(CCNC(=O)[C@@H]2CC(=O)N(C)[C@@H](CC(C)C)C(=O)N(CCC3CCCCC3)CC(=O)N[C@H](Cc3ccccc3)COc3cccc(OC)c3C(=O)N2)c1` [Example 201, (3R,9S,13S)-3-benzyl-7-(2-cyclohexylethyl)-N-(3-ethoxyphenethyl)-9-isobutyl-16-methoxy-10-methyl-5,8,11,15-tetraoxo-2,3,4,5,6,7,8,9,10,11,12,13,14,15-tetradecahydrobenzo[p][1]oxa[4,7,10,14]tetraazacycloheptadecine-13-carboxamide]: the 50% effective concentration (EC50) was found to be 222 nM and the Emax came to 109%.

In the case of `COc1cccc2c1C(=O)N[C@H](C(=O)NCCc1ccc(C)cc1)CC(=O)N(C)[C@@H](CC(C)C)C(=O)N(CCC1CCCCC1)CC(=O)N[C@H](Cc1ccccc1)CO2` [Example 202, (3R,9S,13S)-3-benzyl-7-(2-cyclohexylethyl)-9-isobutyl-16-methoxy-10-methyl-N-(4-methylphenethyl)-5,8,11,15-tetraoxo-2,3,4,5,6,7,8,9,10,11,12,13,14,15-tetradecahydrobenzo[p][1]oxa[4,7,10,14]tetraazacycloheptadecine-13-carboxamide], the EC50 came out at 187 nM and the Emax turned out to be 160%.

Turning to `COc1cccc2c1C(=O)N[C@H](C(=O)NCCc1ccc(N(C)C)cc1)CC(=O)N(C)[C@@H](CC(C)C)C(=O)N(CCC1CCCCC1)CC(=O)N[C@H](Cc1ccccc1)CO2` [Example 203, (3R,9S,13S)-3-benzyl-7-(2-cyclohexylethyl)-N-(4-(dimethylamino)phenethyl)-9-isobutyl-16-methoxy-10-methyl-5,8,11,15-tetraoxo-2,3,4,5,6,7,8,9,10,11,12,13,14,15-tetradecahydrobenzo[p][1]oxa[4,7,10,14]tetraazacycloheptadecine-13-carboxamide], the EC50 amounted to 183 nM and the Emax turned out to be 134%.

On to `COc1cccc2c1C(=O)N[C@H](C(=O)NCCc1ccccc1F)CC(=O)N(C)[C@@H](CC(C)C)C(=O)N(CCC1CCCCC1)CC(=O)N[C@H](Cc1ccccc1)CO2` [Example 204, (3R,9S,13S)-3-benzyl-7-(2-cyclohexylethyl)-N-(2-fluorophenethyl)-9-isobutyl-16-methoxy-10-methyl-5,8,11,15-tetraoxo-2,3,4,5,6,7,8,9,10,11,12,13,14,15-tetradecahydrobenzo[p][1]oxa[4,7,10,14]tetraazacycloheptadecine-13-carboxamide], for which the EC50 turned out to be 198 nM and the Emax worked out at 173%.

For `COc1cc(CCNC(=O)[C@@H]2CC(=O)N(C)[C@@H](CC(C)C)C(=O)N(CCC3CCCCC3)CC(=O)N[C@H](Cc3ccccc3)COc3cccc(OC)c3C(=O)N2)cc(OC)c1` [Example 205, (3R,9S,13S)-3-benzyl-7-(2-cyclohexylethyl)-N-(3,5-dimethoxyphenethyl)-9-isobutyl-16-methoxy-10-methyl-5,8,11,15-tetraoxo-2,3,4,5,6,7,8,9,10,11,12,13,14,15-tetradecahydrobenzo[p][1]oxa[4,7,10,14]tetraazacycloheptadecine-13-carboxamide], the EC50 is 175 nM and the maximal response (Emax) was 229%.

Consider `COc1cccc2c1C(=O)N[C@H](C(=O)NCCc1cccs1)CC(=O)N(C)[C@@H](CC(C)C)C(=O)N(CCC1CCCCC1)CC(=O)N[C@H](Cc1ccccc1)CO2` [Example 206, (3R,9S,13S)-3-benzyl-7-(2-cyclohexylethyl)-9-isobutyl-16-methoxy-10-methyl-5,8,11,15-tetraoxo-N-(2-(thiophen-2-yl)ethyl)-2,3,4,5,6,7,8,9,10,11,12,13,14,15-tetradecahydrobenzo[p][1]oxa[4,7,10,14]tetraazacycloheptadecine-13-carboxamide], for which the EC50 amounted to 272 nM and the Emax stood at 164%.

As to `COc1ccc(CCNC(=O)[C@@H]2CC(=O)N(C)[C@@H](CC(C)C)C(=O)N(CCC3CCCCC3)CC(=O)N[C@H](Cc3ccccc3)COc3cccc(OC)c3C(=O)N2)nc1` [Example 207, (3R,9S,13S)-3-benzyl-7-(2-cyclohexylethyl)-9-isobutyl-16-methoxy-N-(2-(5-methoxypyridin-2-yl)ethyl)-10-methyl-5,8,11,15-tetraoxo-2,3,4,5,6,7,8,9,10,11,12,13,14,15-tetradecahydrobenzo[p][1]oxa[4,7,10,14]tetraazacycloheptadecine-13-carboxamide], the EC50 came to 317 nM and the Emax was 138%.

As to `COc1cccc2c1C(=O)N[C@H](C(=O)NCCc1ccco1)CC(=O)N(C)[C@@H](CC(C)C)C(=O)N(CCC1CCCCC1)CC(=O)N[C@H](Cc1ccccc1)CO2` [Example 208, (3R,9S,13S)-3-benzyl-7-(2-cyclohexylethyl)-N-(2-(furan-2-yl)ethyl)-9-isobutyl-16-methoxy-10-methyl-5,8,11,15-tetraoxo-2,3,4,5,6,7,8,9,10,11,12,13,14,15-tetradecahydrobenzo[p][1]oxa[4,7,10,14]tetraazacycloheptadecine-13-carboxamide], the EC50 worked out at 277 nM and the Emax amounted to 188%.

Regarding `COc1cccc2c1C(=O)N[C@H](C(=O)NCCn1nc(C)cc1C)CC(=O)N(C)[C@@H](CC(C)C)C(=O)N(CCC1CCCCC1)CC(=O)N[C@H](Cc1ccccc1)CO2` [Example 209, (3R,9S,13S)-3-benzyl-7-(2-cyclohexylethyl)-N-(2-(3,5-dimethyl-1H-pyrazol-1-yl)ethyl)-9-isobutyl-16-methoxy-10-methyl-5,8,11,15-tetraoxo-2,3,4,5,6,7,8,9,10,11,12,13,14,15-tetradecahydrobenzo[p][1]oxa[4,7,10,14]tetraazacycloheptadecine-13-carboxamide], the EC50 worked out at 392 nM and the Emax came to 118%.

As to `COCCCNC(=O)[C@@H]1CC(=O)N(C)[C@@H](CC(C)C)C(=O)N(CCC2CCCCC2)CC(=O)N[C@H](Cc2ccccc2)COc2cccc(OC)c2C(=O)N1` [Example 210, (3R,9S,13S)-3-benzyl-7-(2-cyclohexylethyl)-9-isobutyl-16-methoxy-N-(3-methoxypropyl)-10-methyl-5,8,11,15-tetraoxo-2,3,4,5,6,7,8,9,10,11,12,13,14,15-tetradecahydrobenzo[p][1]oxa[4,7,10,14]tetraazacycloheptadecine-13-carboxamide], the EC50 stood at 352 nM and the Emax was 108%.

As for `COc1cccc2c1C(=O)N[C@H](C(=O)NCCc1ccccc1)CC(=O)N(C)[C@@H](CC(C)C)C(=O)N(CCC1CCCCC1)CC(=O)N[C@H](Cc1ccccc1)CO2` [Example 211, (3R,9S,13S)-3-benzyl-7-(2-cyclohexylethyl)-9-isobutyl-16-methoxy-10-methyl-5,8,11,15-tetraoxo-N-phenethyl-2,3,4,5,6,7,8,9,10,11,12,13,14,15-tetradecahydrobenzo[p][1]oxa[4,7,10,14]tetraazacycloheptadecine-13-carboxamide], the EC50 came to 309 nM and the Emax came to 146%.

Regarding `COc1cccc2c1C(=O)N[C@H](C(=O)NCCc1cc(C)no1)CC(=O)N(C)[C@@H](CC(C)C)C(=O)N(CCC1CCCCC1)CC(=O)N[C@H](Cc1ccccc1)CO2` [Example 214, (3R,9S,13S)-3-benzyl-7-(2-cyclohexylethyl)-9-isobutyl-16-methoxy-10-methyl-N-(2-(3-methylisoxazol-5-yl)ethyl)-5,8,11,15-tetraoxo-2,3,4,5,6,7,8,9,10,11,12,13,14,15-tetradecahydrobenzo[p][1]oxa[4,7,10,14]tetraazacycloheptadecine-13-carboxamide], the EC50 turned out to be 292 nM and the Emax was determined as 221%.

Consider `CCc1ccc(CCNC(=O)[C@@H]2CC(=O)N(C)[C@@H](CC(C)C)C(=O)N(CCC3CCCCC3)CC(=O)N[C@H](Cc3ccccc3)COc3cccc(OC)c3C(=O)N2)cc1` [Example 215, (3R,9S,13S)-3-benzyl-7-(2-cyclohexylethyl)-N-(4-ethylphenethyl)-9-isobutyl-16-methoxy-10-methyl-5,8,11,15-tetraoxo-2,3,4,5,6,7,8,9,10,11,12,13,14,15-tetradecahydrobenzo[p][1]oxa[4,7,10,14]tetraazacycloheptadecine-13-carboxamide], for which the EC50 stood at 214 nM and the Emax came out at 172%.

For `COCCCCCNC(=O)[C@@H]1CC(=O)N(C)[C@@H](CC(C)C)C(=O)N(CCC2CCCCC2)CC(=O)N[C@H](Cc2ccccc2)COc2cccc(OC)c2C(=O)N1` [Example 216, (3R,9S,13S)-3-benzyl-7-(2-cyclohexylethyl)-9-isobutyl-16-methoxy-N-(5-methoxypentyl)-10-methyl-5,8,11,15-tetraoxo-2,3,4,5,6,7,8,9,10,11,12,13,14,15-tetradecahydrobenzo[p][1]oxa[4,7,10,14]tetraazacycloheptadecine-13-carboxamide], the EC50 turned out to be 420 nM and the Emax worked out at 102%.

Regarding `COc1cccc2c1C(=O)N[C@H](C(=O)NCCc1ccc(-n3cccn3)cc1)CC(=O)N(C)[C@@H](CC(C)C)C(=O)N(CCC1CCCCC1)CC(=O)N[C@H](Cc1ccccc1)CO2` [Example 217, (3R,9S,13S)-N-(4-(1H-pyrazol-1-yl)phenethyl)-3-benzyl-7-(2-cyclohexylethyl)-9-isobutyl-16-methoxy-10-methyl-5,8,11,15-tetraoxo-2,3,4,5,6,7,8,9,10,11,12,13,14,15-tetradecahydrobenzo[p][1]oxa[4,7,10,14]tetraazacycloheptadecine-13-carboxamide], the EC50 came out at 202 nM and the Emax came to 135%.

Take `COc1cc(CCNC(=O)[C@@H]2CC(=O)N(C)[C@@H](CC(C)C)C(=O)N(CCC3CCCCC3)CC(=O)N[C@H](Cc3ccccc3)COc3cccc(OC)c3C(=O)N2)ccc1N` [Example 218, (3R,9S,13S)-N-(4-amino-3-methoxyphenethyl)-3-benzyl-7-(2-cyclohexylethyl)-9-isobutyl-16-methoxy-10-methyl-5,8,11,15-tetraoxo-2,3,4,5,6,7,8,9,10,11,12,13,14,15-tetradecahydrobenzo[p][1]oxa[4,7,10,14]tetraazacycloheptadecine-13-carboxamide]: the EC50 turned out to be 353 nM and the Emax worked out at 143%.

Source of the values: patent publication US20240208992A1, “MACROCYCLES AS CFTR MODULATORS” (Idorsia Pharmaceuticals Ltd, priority 2021, published 2024).
